We go through eleven compounds from US10426169B2 (priority 2011, dated 2019).

A short description of one series: physchem. Particulars: pH 2.7.
The test system of another series is Phytophthora infestans. Type of series: in vivo, Phytophthora infestans on young tomato plants. The settings on record: protective, tomato plants, active ingredient concentration 100 ppm, evaluation 7 days after inoculation; 0% = control, 100% = no infection.

SMILES strings stand for the structures.

Description for physchem: The LC-MS determination in the acidic range is effected at pH 2.7 with 0.1% aqueous formic acid and acetonitrile (contains 0.1% formic acid) as eluents; linear gradient from 10% acetonitrile to 95% acetonitrile. • ^[b] The LC-MS determination in the neutral range is effected at pH 7.8 using 0.001 molar aqueous ammonium hydrogencarbonate solution and acetonitrile as eluents; linear gradient from 10% acetonitrile to 95% acetonitrile.
The calibration is effected with unbranched alkan-2-ones (having 3 to 16 carbon atoms) with known log P values (log P values determined on the basis of the retention times by linear interpolation between two successive alkanones).

For the compound `COC(C)(OC)C(CC(O)c1ccccc1OCC#C[Si](C)(C)C)=NO` (stereo not drawn) [1-hydroxyl-4,4-dimethoxy-1-(2-{[3-(trimethylsilyl)prop-2-yn-1-yl]oxy}phenyl)pentan-3-one oxime], the chromatographic logP (in general, a lipophilicity value derived from retention on a column) in “physchem” is 3.19. In the series with Phytophthora infestans, `CC(C)=NOCC(=O)N1CCC(c2nc(-c3cc(-c4ccccc4C=O)on3)cs2)CC1` [I-8, 2-{3-[2-(1-{[(Propan-2-ylideneamino)oxy]acetyl}piperidin-4-yl)-1,3-thiazol-4-yl]-1,2-oxazol-5-yl}benzaldehyde] showed an Eff. % of 89%. In the series “physchem”, this compound registered a chromatographic logP of 2.45. Turning to `CC(C)=NOCC(=O)N1CCC(c2nc(C3=NOC(c4ccccc4OS(C)(=O)=O)C3)cs2)CC1` (stereo not drawn) [I-12, 2-{3-[2-(1-{[(Propan-2-ylideneamino)oxy]acetyl}piperidin-4-yl)-1,3-thiazol-4-yl]-4,5-dihydro-1,2-oxazol-5-yl}phenyl methanesulphonate], the chromatographic logP in “physchem” was 2.36.

Compound `C#CCOc1ccccc1C1CC(C(C)=O)=NO1` (stereo not drawn) [VIIIa-a-81, 1-[5-(2-{[prop-2-yn-1-yl]oxy}phenyl)-4,5-dihydro-1,2-oxazol-3-yl]ethanone] yielded a chromatographic logP in “physchem” of 4.41. The same measure, in the same setting: the result for `CS(=O)(=O)Oc1cc(C(F)(F)F)ccc1C1CC(C(=O)CCl)=NO1` (stereo not drawn) [VIIa-a-143, 2-[3-(Chloroacetyl)-4,5-dihydro-1,2-oxazol-5-yl]-5-(trifluoromethyl)phenyl methanesulphonate] reads 3.25; that for `CN(C)CC(=O)N1CCC(c2nc(C3=NOC(c4ccccc4OS(C)(=O)=O)C3)cs2)CC1` (stereo not drawn) [X-1, 2-(3-{2-[1-(N,N-Dimethylglycyl)piperidin-4-yl]-1,3-thiazol-4-yl}-4,5-dihydro-1,2-oxazol-5-yl)phenyl methanesulphonate], 1.48; that for `CC(C)(C)[Si](C)(C)OCC(=O)N1CCC(c2nc(C3=NOC(c4ccccc4OS(C)(=O)=O)C3)cs2)CC1` (stereo not drawn) [X-2, 2-(3-{2-[1-({[tert-butyl(dimethyl)silyl]oxy}acetyl)piperidin-4-yl]-1,3-thiazol-4-yl}-4,5-dihydro-1,2-oxazol-5-yl)phenyl methanesulphonate], 4.14. The same measure, in the same setting: to `CC(=O)OCC(=O)N1CCC(c2nc(C3=NOC(c4ccccc4OS(C)(=O)=O)C3)cs2)CC1` (stereo not drawn) [X-3, 2-{4-[4-(5-{2-[(Methylsulphonyl)oxy]phenyl}-4,5-dihydro-1,2-oxazol-3-yl)-1,3-thiazol-2-yl]piperidin-1-yl}-2-oxoethyl acetate] belongs 2.18. Same read-out and setting: the result for `CC(C)(C)OC(=O)N1CCC(c2nc(C3=NOC(c4ccc(C(F)(F)F)cc4OS(C)(=O)=O)C3)cs2)CC1` (stereo not drawn) [XVI-143, tert-Butyl 4-[4-(5-{2-[(methylsulphonyl)oxy]-4-(trifluoromethyl)phenyl}-4,5-dihydro-1,2-oxazol-3-yl)-1,3-thiazol-2-yl]piperidine-1-carboxylate] reads 4.36. As for `CS(=O)(=O)Oc1ccccc1C1CC(c2csc(C3CCN(C(=O)CO)CC3)n2)=NO1` (stereo not drawn) [XXVIIa-142, 2-{3-[2-(1-glycoloylpiperidin-4-yl)-1,3-thiazol-4-yl]-4,5-dihydro-1,2-oxazol-5-yl}phenyl methanesulphonate], the chromatographic logP in “physchem” was found to be 1.88. The same measure, in the same setting: the result for `CS(=O)(=O)Oc1ccccc1C1CC(c2csc(C3CCN(C(=O)CCl)CC3)n2)=NO1` (stereo not drawn) [Xc-a-142, 2-(3-{2-[1-(Chloroacetyl)piperidin-4-yl]-1,3-thiazol-4-yl}-4,5-dihydro-1,2-oxazol-5-yl)phenyl methanesulphonate] reads 2.42.
